Results on twelve compounds are retold here after patent US8697685B2, “Chemical compounds” (GlaxoSmithKline LLC, priority 2008, dated 2014).

A word on the IC50: it is the concentration that inhibits the measured activity by half.

In the first assay the test system is AKT phosphorylation at T308 in PC-3 cells. Briefly: Phospho-AKT (T308) ELISA in PC3 cells. The format is cell-based. The settings on record: Homo sapiens, 6 hours compound treatment, in at least one experimental run, read-out: IC50 for inhibition of AKT phosphorylation at T308 in PC-3 cells. As for the experimental part: Phospho-AKT (S473, T308, Total AKT) and phospho-RSK ELISA
PC3 cells (ATCC, Manassas, Va.) were plated in 96-well flat bottom plates (Corning, Lowell, Mass.) at a density of 15,000 cells/well in RPMI 1640 medium supplemented with 10% FBS. Cells were incubated at 37° C., 5% CO2 for 18-20 h. Compounds (dissolved in 100% DMSO) were diluted in an 11-point 3-fold dilution in DMSO. Compound dilution stocks were further diluted in RPMI 1640 with 10% FBS and added to each cell well. DMSO without compound was used in control wells. Final concentration of DMSO in each well was 0.15%. After 6 hours at 37° C. cells were washed with cold PBS (without calcium or magnesium) and lysed in lysis buffer (Meso Scale Discovery, Gaithersburg, Md.) supplemented with 1 protease inhibitor tablet/10 ml (Roche, Indianapolis, Ind.), 10 mM NaF, and 200 μl/10 ml Sigma phosphatase inhibitor 1 & 2 (Sigma Aldrich, St Louis, Mo.) for 30 min at 4° C. All washes were performed on a Bio Tek ELx405 plate washer (Bio Tek Instruments, Winooski, Vt.).
ELISA plates (Meso Scale Discovery; AKT Duplex, cat. N41100B-1; phospho AKT, cat. N411CAB-1; RSK, cat. N41ZB-1) were prepared by the addition of blocking buffer (3% Blocker A diluted in wash buffer (Meso Scale Discovery) for AKT duplex assay and phospho AKT assays; 5% Blocker A/1% Blocker B in Tris-buffered saline for RSK) for 1 hour and washed with wash buffer. Lysates were transferred to assay wells and incubated overnight at 4° C. Following washing with wash buffer, detection buffer (1% Blocker A in wash buffer for AKT duplex and phospho AKT or 1% Blocker A in TBS for RSK) with appropriate antibodies was added. Detection of AKT duplex and phospho AKT was carried out using a sulfo-tagged detection antibodies (Meso Scale Discovery). Detection of phospho-RSK was carried out sequentially with anti phospho-RSK1 (S221)/RSK2 (S227) (R&D systems, Minneapolis, Minn., cat. AF892) and goat anti-rabbit sulfo-tag antibody (cat R32AB-1; Meso Scale Discovery). Plates were incubated for 1 hour at room temperature and washed with wash buffer. Plates were read on a SECTOR™ Imager 6000 (Meso Scale Discovery) using Workbench software (Meso Scale Discovery) following addition of read buffer (Meso Scale Discovery) to each well. For analysis, phospho-AKT (S473) signals were normalized to total AKT, while phospho-AKT (T308) and phospho-RSK signals were analyzed without normalization. All values were expressed as percent of the DMSO-treated controls. IC50s were determined from inhibition curves using XLfit4 software (IDBS, Guildford, UK).
A general note: In an ELISA, binding on a coated surface is turned into a signal by an enzyme label.
On to `CNc1nc(-c2ccc3c(N)n[nH]c3c2)cc(N2CC(C(=O)NC3CCCCC3)CCC2C(F)(F)F)n1` (stereo not drawn) [Example 49, Cis-1-[6-(3-Amino-1H-indazol-6-yl)-2-(methylamino)-4-pyrimidinyl]-N-cyclohexyl-6-(trifluoromethyl)-3-piperidinecarboxamide], for which the IC50 is below 1000 nM.
On to `C[C@@H]1CO[C@H](C(=O)Nc2ccccc2)CN1c1cc(-c2ccc3c(N)n[nH]c3c2)nc(N)n1` [Example 67, (2S,5R)-4-[2-Amino-6-(3-amino-1H-indazol-6-yl)-4-pyrimidinyl]-5-methyl-N-phenyl-2-morpholinecarboxamide], for which the IC50 is below 1000 nM.
The same measure, in the same setting: in the case of `CNc1nc(-c2ccc3c(N)n[nH]c3c2)cc(N2C[C@@H](C(=O)Nc3ccccc3)CC[C@H]2C)n1` [Example 77, (3S,6R)-1-[6-(3-amino-1H-indazol-6-yl)-2-(methylamino)-4-pyrimidinyl]-6-methyl-N-phenyl-3-piperidinecarboxamide] it was below 1000 nM.
Still for that read-out and setting: in the case of `CNc1nc(-c2ccc3c(N)n[nH]c3c2)cc(N2C[C@@H](C(=O)NC3CCCCC3)CC[C@H]2C)n1` [Example 78, (3S,6R)-1-[6-(3-Amino-1H-indazol-6-yl)-2-(methylamino)-4-pyrimidinyl]-N-cyclohexyl-6-methyl-3-piperidinecarboxamide] it was below 1000 nM; in that of `CNc1nc(-c2ccc3cn[nH]c3c2)cc(N2C[C@@H](C(=O)NCc3ccccc3)CC[C@H]2C)n1` [Example 81, (3S,6R)-1-[6-(1H-Indazol-6-yl)-2-(methylamino)-4-pyrimidinyl]-6-methyl-N-(phenylmethyl)-3-piperidinecarboxamide], below 1000 nM; in that of `CNc1nc(-c2ccc3c(C)n[nH]c3c2)cc(N2C[C@@H](C(=O)NC3CCCCC3)CC[C@H]2C)n1` [Example 83, (3S,6R)—N-Cyclohexyl-6-methyl-1-[2-(methylamino)-6-(3-methyl-1H-indazol-6-yl)-4-pyrimidinyl]-3-piperidinecarboxamide], below 1000 nM.
Still for that read-out and setting: the value for `CNc1nc(-c2cc(F)c3c(N)n[nH]c3c2)cc(N2C[C@@H](C(=O)NCc3ccccc3)CC[C@H]2C)n1` [Example 86, (3S,6R)-1-[6-(3-Amino-4-fluoro-1H-indazol-6-yl)-2-(methylamino)-4-pyrimidinyl]-6-methyl-N-(phenylmethyl)-3-piperidinecarboxamide] was below 1000 nM; that for `C[C@@H]1CC[C@H](C(=O)NC2CCCCC2)CN1c1cc(-c2ccc3c(N)n[nH]c3c2)nc(N)n1` [Example 121, (3S,6R)-1-[2-Amino-6-(3-amino-1H-indazol-6-yl)-4-pyrimidinyl]-N-cyclohexyl-6-methyl-3-piperidinecarboxamide] was below 1000 nM; that for `CC1CCC(NC(=O)[C@H]2CC[C@@H](C)N(c3cc(-c4ccc5c(N)n[nH]c5c4)nc(N)n3)C2)CC1` (stereo partly drawn) [Example 150, (3S,6R)-1-[2-Amino-6-(3-amino-1H-indazol-6-yl)-4-pyrimidinyl]-6-methyl-N-(4-methylcyclohexyl)-3-piperidinecarboxamide] was below 1000 nM.
In the case of `CNc1nc(-c2ccc3c(N)n[nH]c3c2)cc(N2C[C@@H](C(=O)NCc3ccccc3)OC[C@H]2C)n1` [Example 161, (2S,5R)-4-[6-(3-Amino-1H-indazol-6-yl)-2-(methylamino)-4-pyrimidinyl]-5-methyl-N-(phenylmethyl)-2-morpholinecarboxamide], the IC50 is below 1000 nM.
On the same count and under the same terms, in the case of `CC[C@@H]1CO[C@H](C(=O)NCc2ccccc2)CN1c1cc(-c2ccc3c(N)n[nH]c3c2)nc(NC)n1` [Example 176, (2S,5R)-4-[6-(3-Amino-1H-indazol-6-yl)-2-(methylamino)-4-pyrimidinyl]-5-ethyl-N-(phenylmethyl)-2-morpholinecarboxamide] it was below 1000 nM; in that of `C[C@@H]1C[C@@H](NC(=O)OC(C)(C)C)CN(c2cc(-c3ccc4c(N)n[nH]c4c3)nc(N)n2)C1` [Example 212, 1,1-Dimethylethyl{(3R,5R)-1-[2-amino-6-(3-amino-1H-indazol-6-yl)-4-pyrimidinyl]-5-methyl-3-piperidinyl}carbamate], below 1000 nM.

Another assay addresses T1, full length PDK1 (Homo sapiens, UniProt O15530).
T1 construct: Full-length human 3-Phosphoinositide Dependent protein Kinase-1; made in house; host or cells: baculovirus / Sf9 insect cells
T1 sequence (O15530 1-556): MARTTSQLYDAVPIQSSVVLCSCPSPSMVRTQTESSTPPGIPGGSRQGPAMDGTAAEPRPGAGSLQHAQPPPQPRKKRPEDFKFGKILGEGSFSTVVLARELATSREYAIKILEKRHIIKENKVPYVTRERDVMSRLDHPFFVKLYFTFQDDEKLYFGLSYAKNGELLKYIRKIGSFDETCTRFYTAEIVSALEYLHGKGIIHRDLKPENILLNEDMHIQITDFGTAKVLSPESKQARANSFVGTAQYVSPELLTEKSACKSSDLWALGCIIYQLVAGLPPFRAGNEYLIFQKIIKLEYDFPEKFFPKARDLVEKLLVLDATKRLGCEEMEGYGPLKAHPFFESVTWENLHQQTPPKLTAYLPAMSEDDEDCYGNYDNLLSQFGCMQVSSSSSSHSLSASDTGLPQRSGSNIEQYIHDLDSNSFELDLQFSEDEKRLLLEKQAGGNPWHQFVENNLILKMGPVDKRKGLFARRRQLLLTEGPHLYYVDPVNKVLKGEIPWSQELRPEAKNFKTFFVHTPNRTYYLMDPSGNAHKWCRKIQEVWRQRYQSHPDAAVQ
Briefly: PDK1 enzyme assays (substrate phosphorylation: LEADseeker scintillation proximity, TR-FRET, PDKtide). In kind it is biochemical. The settings on record: in at least one experimental run, read-out: IC50 against full length PDK1. The procedure: Substrate phosphorylation assays are carried out as follows:
Biotinylated-hAKT1: Human AKT1 (containing amino acid residues 136-480, as annotated by National Center for Biotechnology Information (NCBI) accession number AAL55732.1, with a MetLysLysHis6 N-terminal addition) is purified to >90% from lysate of baculovirus expression by Nickel Chelating ProBond resin (InVitrogen), Q-Sepharose Fast Flow, and Superdex 200 size exclusion chromatography. Biotinylation is achieved using EZ-Link Sulfo-NHS-LC Biotin (Pierce). Samples, in 25 mM HEPES, pH 7.5, 200 mM NaCl, 2 mM DTT, and 30% glycerol are stored at −80C until use.
Full-length human 3-Phosphoinositide Dependent protein Kinase-1 (hPDK1; National Center for Biotechnology Information (NCBI) accession number AAH39158.1 with a MetGlyHis6 N-terminal addition) is purified from baculovirus expression in Sf9 cells. Purity of approximately 80% is achieved by the use of chelation chromatography (Ni-NTA Superflow) and desalting columns. Samples, in 25 mM HEPES, 150 mM NaCl, 2.5 mM DTT, 0.05% Triton, 30% glycerol, pH 8.0, are stored at −80° C. until use.
The 39 amino acid biotinylated-PDKtide peptide Seq. ID No. 1: (Biotin-Ahx-[…]) was custom synthesized by 21st Century Biochemicals. […] The concentration was confirmed by quantitative amino acid analysis.
Scintillation Proximity (LEADseeker) Kinase Assay of Purified hPDK1:
Assays are performed in 384-well microtiter plates (Greiner, Catalog No. 784075). The reaction volume (10 μl) contains, in final concentrations, 25 mM MOPS (pH 7.5), 10 mM MgCl2, 50 mM KCl, 0.1 mg/ml BSA, 1 μM ATP, 3 uCi/ml ^33PγATP, 5 mM DTT, 1 mM CHAPS or 0.05% Tween20, 0.35 μM AKT1 biotinylated protein, and 10 nM hPDK1.
Compounds, titrated in DMSO, are evaluated at eleven concentrations ranging from 50 μM to 2 μM. […] Reactions are stopped after 3 hours at room temperature by the addition of 50 mM EDTA, 5 mg/ml LEADseeker beads (GE Healthcare) in PBS (10 ul). Beads are allowed to settle overnight, and samples are imaged on Viewlux (PerkinElmer).
The data for compound concentration responses were plotted as % Inhibition, calculated with the data reduction formula 100*(1−[(U1−C2)/(C1−C2)]), versus concentration of compound, where
Data were fitted to the curve described by:
TR-FRET Kinase Assay of Purified hPDK1:
Assays are performed in 384-well microtiter plates (Greiner, Catalog No. 784076).
As previously described for the Scintillation Proximity protocol, hPDK1 is pre-incubated (30 minutes at room temperature) with compounds before initiating phosphorylation of AKT1 by addition of substrate to the hPDK1 and compound mix. Reactions are stopped after 4-6 hours at room temperature by the addition to final concentrations of 0.02 M EDTA, 0.0875 μM Streptavidin APC (PerkinElmer), 0.03 μM AKT1 (phospho T308) antibody (Abcam Inc.), 0.00375 μM Lance Eu-labeled anti rabbit IgG Antibody (PerkinElmer). Antibody binding reaches equilibrium in 30 minutes before signal is read on an EnVision™ 2103 Multilabel Reader (PerkinElmer). APC Signals are normalized to Europium signal. Data processing is the same as described for the Scintillation Proximity assay with the exception of the generation of the “C2” control by addition of buffer without hPDK1 to control wells at t=0 instead of EDTA.
Scintillation Proximity (LEADseeker) Kinase Assay of Purified hPDK1 using Biotinylated-PDKtide Peptide:
Assays are performed in 384-well microtiter plates (Greiner, Catalog No. 784075). The reaction volume (10 μl) contains, in final concentrations, 25 mM MOPS (pH 7.5), 10 mM MgCl2, 50 mM KCl, 0.1 mg/ml BSA, 1 μM ATP, 3 uCi/ml ^33PγATP, 5 mM DTT, 0.5 mM CHAPS, 1 μM biotinylated-PDKtide peptide, and 0.5 nM hPDK1.
Compounds, titrated in DMSO, are evaluated at eleven concentrations ranging from 25 μM to 0.4 pM. […] Reactions are stopped after 4 hours at room temperature by the addition of 50 mM EDTA, 5 mg/ml LEADseeker beads (GE Healthcare) in PBS (10 ul).
A general note: SPA uses beads or plates that emit light when radiolabelled molecules are held near them.
`CNc1nc(-c2ccc3c(C)n[nH]c3c2)cc(N2C[C@@H](C(=O)NC3CCCCC3)CC[C@H]2C)n1` [Example 83, (3S,6R)—N-Cyclohexyl-6-methyl-1-[2-(methylamino)-6-(3-methyl-1H-indazol-6-yl)-4-pyrimidinyl]-3-piperidinecarboxamide]: the concentration for half-maximal inhibition (IC50) is below 20 nM.
Regarding `CNc1nc(-c2ccc3c(N)n[nH]c3c2)cc(N2C[C@@H](C(=O)NCc3ccccc3)OC[C@H]2C)n1` [Example 161, (2S,5R)-4-[6-(3-Amino-1H-indazol-6-yl)-2-(methylamino)-4-pyrimidinyl]-5-methyl-N-(phenylmethyl)-2-morpholinecarboxamide], the IC50 was below 20 nM.
